# Measurements from the supplement of paper PMC10307832.
# Experiments:
# Test in all cases: relative viability (nuclei count vs DMSO), 5 days (fraction); higher = more cells survive
# Tanzisertib + Decitabine = compound: O[C@H]1CC[C@H](Nc2ncc3nc(Nc4c(F)cc(F)cc4F)n([C@H]4CCOC4)c3n2)CC1 [Tanzisertib] + Nc1ncn([C@H]2C[C@H](O)[C@@H](CO)O2)c(=O)n1 [Decitabine] (partner 2 µM)
# In short: (§1)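 Lung cancer cell lines were seeded in 1536-well plates and dosed by pin tool the next day, with either a single drug or a fixed anchor-drug dose combined with five library-drug doses (not always all listed) spaced in √10 steps. Five days later, one step fixed the cells and stained their nuclei (final 0.05% Triton X-100, 1% formaldehyde, 1 ug/ml Hoechst), and nuclei were counted on 4× images. Relative viability is the nuclei count in treated wells divided by the count in vehicle wells, and each value is the median of duplicate plates.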
# [1] = compound: C[C@@H](N)c1ccc(C(=O)Nc2ccnc3[nH]ccc23)cc1 + O=C(c1cc(Cc2n[nH]c(=O)c3ccccc23)ccc1F)N1CCN(C(=O)C2CC2)CC1 [Olaparib] (partner 8 µM)
# In short: as §1
# Tanzisertib + Lapatinib = compound: O[C@H]1CC[C@H](Nc2ncc3nc(Nc4c(F)cc(F)cc4F)n([C@H]4CCOC4)c3n2)CC1 [Tanzisertib] + CS(=O)(=O)CCNCc1ccc(-c2ccc3ncnc(Nc4ccc(OCc5cccc(F)c5)c(Cl)c4)c3c2)o1 [Lapatinib] (partner 2 µM)
# In short: as §1
# [2] = compound: C[C@@H](N)c1ccc(C(=O)Nc2ccnc3[nH]ccc23)cc1 + CCNC(=O)c1noc(-c2cc(C(C)C)c(O)cc2O)c1-c1ccc(CN2CCOCC2)cc1 [Luminespib] (partner 0.01 µM)
# In short: as §1
Cell Line,relative viability (Tanzisertib + Decitabine; first compound 0.08 µM),relative viability (Tanzisertib + Decitabine; first compound 0.253 µM),relative viability (Tanzisertib + Decitabine; first compound 0.8 µM),relative viability (Tanzisertib + Decitabine; first compound 2.53 µM),relative viability (Tanzisertib + Decitabine; first compound 8 µM),relative viability ([1]; first compound 0.04 µM),relative viability ([1]; first compound 0.1265 µM),relative viability ([1]; first compound 0.4 µM),relative viability ([1]; first compound 1.265 µM),relative viability ([1]; first compound 4 µM),relative viability (Tanzisertib + Lapatinib; first compound 0.08 µM),relative viability (Tanzisertib + Lapatinib; first compound 0.253 µM),relative viability (Tanzisertib + Lapatinib; first compound 0.8 µM),relative viability (Tanzisertib + Lapatinib; first compound 2.53 µM),relative viability (Tanzisertib + Lapatinib; first compound 8 µM),relative viability ([2]; first compound 0.04 µM),relative viability ([2]; first compound 0.1265 µM),relative viability ([2]; first compound 0.4 µM),relative viability ([2]; first compound 1.265 µM),relative viability ([2]; first compound 4 µM)
HCC-78,0.683,0.675,0.666,0.704,0.622,1.05,0.964,1.16,1.4,1.08,0.72,0.7,0.827,0.786,0.303,,,,,
HCC-366,,0.381,0.382,0.348,0.254,0.345,0.368,0.371,0.447,0.389,0.985,1.06,1.1,1.07,1.03,,,,,
HCC-827,0.338,0.372,0.257,0.367,0.207,,0.764,0.834,0.739,0.542,0.19,0.186,0.201,0.24,0.183,0.786,0.686,0.698,0.848,0.608
HOP-62,0.212,0.236,0.217,0.248,0.215,0.43,0.381,0.419,,0.47,1.25,0.85,1.06,1.12,0.511,0.732,0.812,0.94,0.893,0.817
IA-LM,,,,,,0.824,0.996,0.914,1.11,0.914,0.855,0.732,,1.03,1.03,,,,,
LC-2-ad,0.774,0.788,0.777,0.806,0.722,0.744,0.693,0.646,0.647,0.478,0.991,0.978,1.1,0.989,0.868,0.864,0.987,0.837,,0.659
LCLC-97TM1,0.25,0.264,0.201,0.245,0.228,0.416,0.429,0.342,0.526,0.342,,0.92,0.696,0.568,0.863,0.828,0.826,1.06,0.908,0.857
LCLC-103H,0.763,0.768,0.711,0.672,0.72,0.8,0.748,0.769,0.827,0.628,,,,,,1.15,0.914,0.956,0.911,0.69
LK-2,0.325,0.379,0.217,0.381,0.221,0.732,0.658,0.746,0.482,0.864,1.1,0.895,1.12,0.996,0.977,0.202,,0.218,,0.238
LOU-NH91,0.869,0.82,0.837,0.805,0.635,0.824,0.911,0.875,0.74,0.593,0.782,0.775,0.64,0.771,0.716,0.283,0.334,0.381,0.33,0.316
LU99A,1.03,0.88,0.984,0.874,0.911,,0.231,0.253,0.275,0.281,1.1,0.934,0.934,1.11,1.2,,0.303,0.323,0.251,0.292
LXF-289,0.419,0.379,0.387,0.416,0.39,1.12,1.05,1.16,1.23,0.901,0.99,0.883,0.983,0.926,0.977,0.711,0.616,0.785,0.691,0.534
NCI-H441,0.237,0.239,0.261,0.238,0.257,0.544,0.505,0.539,0.562,0.35,,,,,,0.451,0.342,0.326,,0.403
NCI-H522,0.807,0.699,0.618,0.803,0.636,0.591,0.684,0.657,0.658,0.629,,,,,,1.34,1.06,1.59,1.02,0.885
NCI-H1299,,,,,,0.91,0.987,0.933,0.878,0.767,1.01,0.982,0.989,1.05,1.11,,,,,
NCI-H1563,,,,,,,,,,,0.973,0.947,0.967,1.06,1.01,0.514,0.484,0.499,0.508,0.514
NCI-H1623,,,,,,,,,,,,,,,,0.657,0.494,0.563,0.491,0.591
NCI-H1648,0.487,0.6,0.613,0.524,0.376,1.01,1.02,1.93,1.71,1.29,,,,,,,,,,
NCI-H1703,,,,,,0.374,0.476,0.348,,0.463,1.29,1.08,1.09,1.11,0.942,,,,,
NCI-H2228,,,,,,0.535,0.726,0.714,0.917,0.771,1.27,1.15,1.13,1.23,1.13,0.069,0.147,0.116,0.122,0.178
NCI-H2342,0.78,0.778,0.694,0.781,0.815,0.454,0.469,0.405,0.481,0.388,,,,,,0.858,0.797,0.719,0.802,0.808
SW 900,,0.485,0.412,0.328,0.438,1.03,0.918,1.21,0.883,1.08,,,,,,0.185,0.214,0.152,0.172,0.152
